Source: ChEMBL document CHEMBL1201862, “PubChem BioAssay data set” (2004)
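Values below derive from 48-hour exposures of cells grown in 96-well plates, with endpoints linearly interpolated between the two concentrations bracketing the appropriate inhibition level. At the GI50, growth is halved.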 The source made the active and inactive calls. No stated cut-off is given here; in the data, active = GI50 up to about 1.1 µM and inactive = higher.

Columns and labels:
Test in all cases: NCI tumour cell line growth inhibition, 48 h
[1] = system: SN12C
[2] = system: COLO 205
[3] = system: CCRF-CEM
[4] = system: OVCAR-5
[5] = system: UO-31
[6] = system: SF-539
[7] = system: HCC 2998
[8] = system: K562
[9] = system: KM12
[10] = system: M14
[11] = system: SNB-75
[12] = system: A549
[13] = system: RXF 393
[14] = system: M19-MEL
[15] = system: HOP-92
[16] = system: NCI-H460
[17] = system: CAKI-1
[18] = system: 786-0
[19] = system: HOP-18
[20] = system: HOP-62
[21] = system: LOX IMVI
[22] = system: SK-MEL-2
[23] = system: RPMI-8226
[24] = system: TK-10
[25] = system: ACHN
[26] = system: DMS-273
[27] = system: NCI-H522
[28] = system: SF-268
[29] = system: HCT-116
[30] = system: UACC-257
[31] = system: KM-20L2
[32] = system: A498
[33] = system: Malme-3M
[34] = system: DMS-114
[35] = system: SW-620
[36] = system: SK-MEL-5
[37] = system: IGROV-1
[38] = system: DLD-1
[39] = system: MOLT-4
[40] = system: SK-OV-3
[41] = system: U-251
[42] = system: SR
[43] = system: OVCAR-8
[44] = system: SNB-78
[45] = system: UACC-62
[46] = system: HCT-15
[47] = system: HL-60
[48] = system: SNB-19
[49] = system: OVCAR-4
[50] = system: HT-29
[51] = system: SF-295
[52] = system: LXFL 529
[53] = system: OVCAR-3
[54] = system: EKVX
[55] = system: SK-MEL-28
[56] = system: NCI-H23
[57] = system: NCI-H226
[58] = system: XF498

## CCOC(=O)N1CCc2cc(OC)c(OC)c3c2C1CC3=O (stereo not given)
[1]
  GI50: > 100 µM (inactive)
[2]
  GI50: > 100 µM (inactive)
[3]
  GI50: > 100 µM (inactive)
[4]
  GI50: > 100 µM (inactive)
[5]
  GI50: > 100 µM (inactive)
[6]
  GI50: > 100 µM (inactive)
[7]
  GI50: > 100 µM (inactive)
[8]
  GI50: > 100 µM (inactive)
[9]
  GI50: > 100 µM (inactive)
[10]
  GI50: > 100 µM (inactive)
[11]
  GI50: > 100 µM (inactive)
[12]
  GI50: > 100 µM (inactive)
[13]
  GI50: > 100 µM (inactive)
[14]
  GI50: > 100 µM (inactive)
[15]
  GI50: > 100 µM (inactive)
[16]
  GI50: > 100 µM (inactive)
[17]
  GI50: > 100 µM (inactive)
[18]
  GI50: > 100 µM (inactive)
[19]
  GI50: > 100 µM (inactive)
[20]
  GI50: > 100 µM (inactive)
[21]
  GI50: > 100 µM (inactive)
[22]
  GI50: > 100 µM (inactive)
[23]
  GI50: > 100 µM (inactive)
[24]
  GI50: > 100 µM (inactive)
[25]
  GI50: > 100 µM (inactive)
[26]
  GI50: > 100 µM (inactive)
[27]
  GI50: > 100 µM (inactive)
[28]
  GI50: > 100 µM (inactive)
[29]
  GI50: > 100 µM (inactive)
[30]
  GI50: > 100 µM (inactive)
[31]
  GI50: > 100 µM (inactive)
[32]
  GI50: > 100 µM (inactive)
[33]
  GI50: > 100 µM (inactive)
[34]
  GI50: > 100 µM (inactive)
[35]
  GI50: > 100 µM (inactive)
[36]
  GI50: > 100 µM (inactive)
[37]
  GI50: > 100 µM (inactive)
[38]
  GI50: > 100 µM (inactive)
[39]
  GI50: > 100 µM (inactive)
[40]
  GI50: > 100 µM (inactive)
[41]
  GI50: > 100 µM (inactive)
[42]
  GI50: > 100 µM (inactive)
[43]
  GI50: > 100 µM (inactive)
[44]
  GI50: > 100 µM (inactive)
[45]
  GI50: > 100 µM (inactive)
[46]
  GI50: > 100 µM
[47]
  GI50: > 100 µM (inactive)
[48]
  GI50: > 100 µM (inactive)
[49]
  GI50: > 100 µM (inactive)
[50]
  GI50: > 100 µM (inactive)
[51]
  GI50: > 100 µM (inactive)
[52]
  GI50: > 100 µM (inactive)

## COc1ccccc1C1C(C(=O)O)=C(CO)Oc2cc3c(cc21)OCO3 (stereo not given)
[1]
  GI50: > 100 µM (inactive)
[53]
  GI50: > 100 µM (inactive)
[54]
  GI50: > 100 µM (inactive)
[2]
  GI50: > 100 µM (inactive)
[3]
  GI50: > 100 µM (inactive)
[5]
  GI50: > 100 µM (inactive)
[6]
  GI50: > 100 µM (inactive)
[8]
  GI50: > 100 µM (inactive)
[10]
  GI50: > 100 µM (inactive)
[11]
  GI50: > 100 µM (inactive)
[55]
  GI50: > 100 µM (inactive)
[14]
  GI50: > 100 µM (inactive)
[15]
  GI50: > 100 µM (inactive)
[16]
  GI50: > 100 µM (inactive)
[17]
  GI50: > 100 µM (inactive)
[19]
  GI50: > 100 µM (inactive)
[21]
  GI50: > 100 µM (inactive)
[22]
  GI50: > 100 µM (inactive)
[23]
  GI50: > 100 µM (inactive)
[24]
  GI50: > 100 µM (inactive)
[25]
  GI50: > 100 µM (inactive)
[26]
  GI50: > 100 µM (inactive)
[27]
  GI50: > 100 µM (inactive)
[28]
  GI50: > 100 µM (inactive)
[31]
  GI50: > 100 µM (inactive)
[32]
  GI50: > 100 µM (inactive)
[33]
  GI50: > 100 µM (inactive)
[34]
  GI50: > 100 µM (inactive)
[35]
  GI50: > 100 µM (inactive)
[56]
  GI50: > 100 µM (inactive)
[36]
  GI50: > 100 µM (inactive)
[37]
  GI50: > 100 µM (inactive)
[39]
  GI50: > 100 µM (inactive)
[40]
  GI50: > 100 µM (inactive)
[41]
  GI50: > 100 µM (inactive)
[43]
  GI50: > 100 µM (inactive)
[57]
  GI50: > 100 µM (inactive)
[44]
  GI50: > 100 µM (inactive)
[45]
  GI50: > 100 µM (inactive)
[46]
  GI50: > 100 µM
[47]
  GI50: > 100 µM (inactive)
[48]
  GI50: > 100 µM (inactive)
[50]
  GI50: > 100 µM (inactive)
[51]
  GI50: > 100 µM (inactive)
[52]
  GI50: > 100 µM (inactive)

## CC1(C)c2ccccc2C(C)(C)C(C(=O)Nc2ccccc2)C1C(=O)O (stereo not given)
[1]
  GI50: > 100 µM (inactive)
[53]
  GI50: > 100 µM (inactive)
[54]
  GI50: > 100 µM (inactive)
[2]
  GI50: > 100 µM (inactive)
[3]
  GI50: > 100 µM (inactive)
[4]
  GI50: > 100 µM (inactive)
[5]
  GI50: > 100 µM (inactive)
[6]
  GI50: > 100 µM (inactive)
[7]
  GI50: > 100 µM (inactive)
[8]
  GI50: > 100 µM (inactive)
[9]
  GI50: > 100 µM (inactive)
[10]
  GI50: > 100 µM (inactive)
[11]
  GI50: > 100 µM (inactive)
[55]
  GI50: > 100 µM (inactive)
[12]
  GI50: > 100 µM (inactive)
[13]
  GI50: > 100 µM (inactive)
[14]
  GI50: > 100 µM (inactive)
[15]
  GI50: > 100 µM (inactive)
[18]
  GI50: > 100 µM (inactive)
[19]
  GI50: > 100 µM (inactive)
[20]
  GI50: > 100 µM (inactive)
[21]
  GI50: > 100 µM (inactive)
[22]
  GI50: > 100 µM (inactive)
[23]
  GI50: > 100 µM (inactive)
[24]
  GI50: > 100 µM (inactive)
[25]
  GI50: > 100 µM (inactive)
[26]
  GI50: > 100 µM (inactive)
[27]
  GI50: > 100 µM (inactive)
[28]
  GI50: > 100 µM (inactive)
[29]
  GI50: 95.1 µM (inactive)
[30]
  GI50: > 100 µM (inactive)
[31]
  GI50: > 100 µM (inactive)
[32]
  GI50: > 100 µM (inactive)
[33]
  GI50: > 100 µM (inactive)
[34]
  GI50: 91.6 µM (inactive)
[35]
  GI50: > 100 µM (inactive)
[56]
  GI50: > 100 µM (inactive)
[36]
  GI50: > 100 µM (inactive)
[38]
  GI50: > 100 µM (inactive)
[39]
  GI50: > 100 µM (inactive)
[40]
  GI50: > 100 µM (inactive)
[41]
  GI50: > 100 µM (inactive)
[43]
  GI50: > 100 µM (inactive)
[57]
  GI50: > 100 µM (inactive)
[44]
  GI50: > 100 µM (inactive)
[45]
  GI50: > 100 µM (inactive)
[47]
  GI50: > 100 µM (inactive)
[48]
  GI50: > 100 µM (inactive)
[50]
  GI50: > 100 µM (inactive)
[51]
  GI50: > 100 µM (inactive)
[52]
  GI50: > 100 µM (inactive)

## C=CC[C@H]1C[C@@]2(C)OC[C@H](C(C)C)N2C1=O
[1]
  GI50: > 100 µM (inactive)
[53]
  GI50: > 100 µM (inactive)
[54]
  GI50: > 100 µM (inactive)
[2]
  GI50: > 100 µM (inactive)
[3]
  GI50: > 100 µM (inactive)
[4]
  GI50: > 100 µM (inactive)
[6]
  GI50: > 100 µM (inactive)
[8]
  GI50: > 100 µM (inactive)
[9]
  GI50: > 100 µM (inactive)
[11]
  GI50: > 100 µM (inactive)
[55]
  GI50: > 100 µM (inactive)
[12]
  GI50: > 100 µM (inactive)
[13]
  GI50: > 100 µM (inactive)
[14]
  GI50: > 100 µM (inactive)
[15]
  GI50: > 100 µM (inactive)
[16]
  GI50: > 100 µM (inactive)
[17]
  GI50: > 100 µM (inactive)
[18]
  GI50: > 100 µM (inactive)
[19]
  GI50: > 100 µM (inactive)
[20]
  GI50: > 100 µM (inactive)
[21]
  GI50: > 100 µM (inactive)
[22]
  GI50: > 100 µM (inactive)
[23]
  GI50: > 100 µM (inactive)
[24]
  GI50: > 100 µM (inactive)
[25]
  GI50: > 100 µM (inactive)
[26]
  GI50: > 100 µM (inactive)
[28]
  GI50: > 100 µM (inactive)
[29]
  GI50: > 100 µM (inactive)
[30]
  GI50: > 100 µM (inactive)
[31]
  GI50: > 100 µM (inactive)
[32]
  GI50: > 100 µM (inactive)
[33]
  GI50: > 100 µM (inactive)
[35]
  GI50: > 100 µM (inactive)
[56]
  GI50: > 100 µM (inactive)
[36]
  GI50: > 100 µM (inactive)
[37]
  GI50: > 100 µM (inactive)
[58]
  GI50: > 100 µM (inactive)
[41]
  GI50: > 100 µM (inactive)
[42]
  GI50: > 100 µM (inactive)
[43]
  GI50: > 100 µM (inactive)
[44]
  GI50: > 100 µM (inactive)
[45]
  GI50: > 100 µM (inactive)
[46]
  GI50: > 100 µM
[48]
  GI50: > 100 µM (inactive)
[49]
  GI50: > 100 µM (inactive)
[50]
  GI50: > 100 µM (inactive)
[51]
  GI50: > 100 µM (inactive)
